Measured values from US9169477B2, “Compositions and methods for immunization against bacteria expressing a carbapenemase” (priority 2012, dated 2015).

B1: rNDM-1: Recombinant NDM-1 protein cloned from K. pneumoniae ATCC BAA-2146, injected with Al(OH)3 adjuvant for immunization (protein, UniProt C7C422 29-270, looked up)
Metallo-beta-lactamase type 2: GEIRPTIGQQMETGDQRFGDLVFRQLAPNVWQHTSYLDMPGFGAVASNGLIVRDGGRVLVVDTAWTDDQTAQILNWIKQEINLPVALAVVTHAHQDKMGGMDALHAAGIATYANALSNQLAPQEGMVAAQHSLTFAANGWVEPATAPNFGPLKVFYPGPGHTSDNITVGIDGTDIAFGGCLIKDSKAKSLGNLGDADTEHYAASARAFGAAFPKASMIVMSHSAPDSRAAITHTARMADKLR

Key:
[1] = tested on: KPC-expressing Klebsiella pneumoniae strain KPC-KP1; assay: Imipenem MIC of the test strain; format: cell-based
Experimental: (§1) To determine the in vitro effects of the antibody generated in response to rNDM1 and rKPC vaccination, bacteria were incubated overnight at 37° C. in 10% serum plus Mueller-Hinton broth, per CLSI standards. […] Thus, the immune serum was directly cidal for NDM-1 expressing K. pneumoniae.

[2] = tested on: NDM-1-expressing K. pneumoniae (ATCC BAA-2146); assay: Imipenem MIC of the test strain; format: cell-based; conditions: Klebsiella pneumoniae, ATCCBAA2146
Experimental: as §1

NDM-1 = molecular target: T1, NDM-1 (Klebsiella pneumoniae, UniProt C7C422); assay: IgG antibody titers in serum of mice vaccinated with rNDM-1; format: in vivo; conditions: subcutaneous with Al(OH)3 adjuvant, booster at three weeks, serum two weeks after booster, vs control mice
T1 construct: made in house
From the text: A vaccination program targeting KPC- and NDM-1 was developed. The KPC gene was cloned from a pan-resistant (to all antibiotics, including colistin) clinical lung isolate of K. pneumoniae acquired at a local hospital (KPC-KP1) and the NDM-1 gene was cloned from a clinical K. pneumoniae isolate (ATCC BAA-2146). Recombinant KPC (rKPC) and recombinant NDM-1 (rNDM-1) proteins were expressed, purified, and used for immunization of mice. The immunization of the mice consisted of subcutaneously injecting either rKPC or rNDM-1 with Al(OH)3 adjuvant. A booster immunization for each mouse was administered at three weeks post initial immunization. Two weeks after the booster, serum from immune and control mice were harvested. […] Thus, high titers of immune polyclonal antibodies have been generated against KPC and NDM-1.

Molecule | MIC [1] [µg/mL] | MIC [2] [µg/mL] | anti-NDM-1 IgG titers (NDM-1; listed as NDM-1) | anti-NDM-1 IgG titers (NDM-1; listed as rNDM1)
C[C@@H](O)[C@H]1C(=O)N2C(C(=O)O)=C(SCCN=CN)C[C@H]12 [imipenem] | > 32 | > 32 |  | 
B1 |  |  | marked increase | high titers
